Source: patent US10633338B2, “Binding Function 3 (BF3) site compounds as therapeutics and methods for their use” (THE UNIVERSITY OF BRITISH COLUMBIA, priority 2014, dated 2020)
Read-outs that look alike come from different tables or passages of the source.

How the values were obtained:
PSA = experiment: Prostate Surface Antigen (PSA) assay, PSA excreted into the media; type: cell-based, human; conditions: same plates as eGFP assay; for IC50: Homo sapiens, 72 h
Procedure: The evaluation of PSA excreted into the media was performed in parallel to the eGFP assay using the same plates (see above description). After the cells were incubated for 3 days 150 μl of the media was taken from each well, and added to 150 μl of PBS.

androgen receptor (AR) = target: T1, androgen receptor (AR) (Homo sapiens, UniProt P10275, T878A); experiment: eGFP cellular AR transcription assay; type: cell-based
T1 construct: stably transfected eGFP-expressing LNCaP human prostate cancer cells (LN-ARR2PB-eGFP) containing an androgen responsive probasin-derived promoter; endogenous in cells; host or cells: LNCaP (LN-ARR2PB-eGFP)
T1 sequence (P10275 1-920 T878A): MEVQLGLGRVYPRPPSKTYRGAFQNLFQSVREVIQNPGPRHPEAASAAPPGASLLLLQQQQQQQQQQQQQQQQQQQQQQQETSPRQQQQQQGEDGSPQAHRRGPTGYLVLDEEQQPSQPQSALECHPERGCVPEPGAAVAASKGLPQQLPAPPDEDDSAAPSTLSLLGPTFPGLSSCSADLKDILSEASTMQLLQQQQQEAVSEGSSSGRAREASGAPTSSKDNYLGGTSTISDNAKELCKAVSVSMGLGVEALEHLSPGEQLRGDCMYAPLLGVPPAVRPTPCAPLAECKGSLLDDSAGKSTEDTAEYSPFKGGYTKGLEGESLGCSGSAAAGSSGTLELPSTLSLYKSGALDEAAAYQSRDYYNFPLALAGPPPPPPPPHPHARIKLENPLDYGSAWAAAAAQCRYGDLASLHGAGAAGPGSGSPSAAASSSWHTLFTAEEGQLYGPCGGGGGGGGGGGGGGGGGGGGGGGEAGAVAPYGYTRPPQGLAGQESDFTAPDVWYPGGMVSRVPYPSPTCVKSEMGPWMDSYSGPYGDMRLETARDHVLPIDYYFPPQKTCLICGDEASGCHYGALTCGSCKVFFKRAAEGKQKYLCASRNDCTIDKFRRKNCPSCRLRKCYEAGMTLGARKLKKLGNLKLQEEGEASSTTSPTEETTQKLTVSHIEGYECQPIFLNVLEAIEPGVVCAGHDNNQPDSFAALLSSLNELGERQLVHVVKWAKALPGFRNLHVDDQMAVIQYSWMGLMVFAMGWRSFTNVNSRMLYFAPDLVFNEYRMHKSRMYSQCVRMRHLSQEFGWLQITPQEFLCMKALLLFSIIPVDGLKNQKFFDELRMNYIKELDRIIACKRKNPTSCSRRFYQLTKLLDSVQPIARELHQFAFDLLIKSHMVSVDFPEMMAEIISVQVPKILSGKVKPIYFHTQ
Summary of the method: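 AR transcriptional activity is read as eGFP expression from a probasin-derived androgen-responsive promoter. Compound titrated 0-100 μM in the presence of 0.1 nM R1881; 35,000 cells/well.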

[1] = PSA excreted into media, 3 days incubation
[2] = LN-ARR2PBeGFP LNCaP cells, 0.1 nM R1881, 3 days incubation
[3] = PSA excreted into media, 3 days incubation, read-out: PSA IC50
[4] = LN-ARR2PBeGFP LNCaP cells, 0.1 nM R1881, 3 days incubation, read-out: eGFP IC50
[5] = media after 3 days, read-out: IC50 (PSA)
[6] = LN-ARR2PB-eGFP LNCaP cells, 0.1 nM R1881, 3 days, 0-100 μM compound, read-out: IC50 (eGFP)

SMILES: Fc1cc2[nH]cc(-c3ccc4c(Cl)cccc4n3)c2cc1F [Compound 13707]
- PSA IC50 (PSA; [1]): Inactive
- eGFP IC50 (androgen receptor (AR); [2]): Inactive

SMILES: Cc1cccc2c(-c3ccc4cccnc4c3)c[nH]c12 [Compound 13744]
- IC50 (PSA; [3]): 750 nM
- IC50 (androgen receptor (AR); [4]): 760 nM

SMILES: Cc1cc(C)c2[nH]cc(-c3ccc4c(C#N)cccc4n3)c2c1 [Compound 13608]
- PSA IC50 (PSA; [1]): Inactive
- eGFP IC50 (androgen receptor (AR); [2]): Inactive

SMILES: FC(F)(F)c1ccc(-c2c[nH]c3ccccc23)cc1 [13 743]
- IC50 (PSA; [5]): 390 nM
- IC50 (androgen receptor (AR); [6]): 380 nM

SMILES: Cc1c(F)ccc2c(-c3nc4ccccc4cc3O)c[nH]c12 [Compound 13652]
- IC50 (PSA; [3]): 1760 nM
- IC50 (androgen receptor (AR); [4]): 3540 nM

SMILES: COc1ccc(Br)cc1-c1c[nH]c2ccccc12 [13 638]
- IC50 (PSA) (PSA; media after 3 days): IC50 (PSA) = Inactive
- IC50 (eGFP) (androgen receptor (AR); LN-ARR2PB-eGFP LNCaP cells, 0.1 nM R1881, 3 days, 0-100 μM compound): IC50 (eGFP) = Inactive

SMILES: Cc1ccc2[nH]cc(C3Nc4ccccc4C34CCCCC4)c2c1 (stereo not shown) [13 548]
- IC50 (PSA; [5]): 4240 nM
- IC50 (androgen receptor (AR); [6]): 3200 nM

SMILES: O=C(c1cc2cc(F)ccc2[nH]1)N(Cc1ccco1)Cc1ccco1 [Compound 9125]
- IC50 (PSA; [3]): 2400 nM
- IC50 (androgen receptor (AR); [4]): 5200 nM

SMILES: Brc1ccc(-c2c[nH]c3ncccc23)cc1 [13 716]
- IC50 (PSA; [5]): 58 nM
- IC50 (androgen receptor (AR); [6]): 67 nM

SMILES: N#C/C(=C\c1ccc(C(F)(F)F)cc1)c1c[nH]c2ccccc12 [Compound 13434]
- IC50 (PSA; [3]): 730 nM
- IC50 (androgen receptor (AR); [4]): 800 nM

SMILES: Fc1ccc(Nc2nc3ccccc3[nH]2)cc1Cl [Compound 13145]
- IC50 (PSA; [3]): 2460 nM
- IC50 (androgen receptor (AR); [4]): 1700 nM

SMILES: Fc1cc(Cl)c2[nH]ccc2c1 [Compound 13721]
- PSA IC50 (PSA; [1]): Inactive
- eGFP IC50 (androgen receptor (AR); [2]): Inactive

SMILES: Cc1[nH]c2ccccc2c1SCc1ccccc1 [Compound 13416]
- IC50 (PSA; [3]): 2320 nM
- IC50 (androgen receptor (AR); [4]): 2700 nM

SMILES: CC1(C)c2ccccc2N(Cc2ccc(O)cc2)C1c1c[nH]c2ccccc12 (stereo not shown) [Compound 13525]
- IC50 (PSA; [3]): 7090 nM
- IC50 (androgen receptor (AR); [4]): 3100 nM

SMILES: Clc1cccc(/N=N/c2c[nH]c3ccccc23)c1 [Compound 13226]
- IC50 (PSA; [3]): 76 nM
- IC50 (androgen receptor (AR); [4]): 110 nM

SMILES: Clc1cc(Cl)cc(/N=C/c2c[nH]c3ccccc23)c1 [Compound 13304]
- IC50 (PSA; [3]): 4540 nM
- IC50 (androgen receptor (AR); [4]): 7300 nM

SMILES: Fc1cc(Cl)c2[nH]cc(-c3ccc4c(F)cccc4n3)c2c1 [Compound 13668]
- PSA IC50 (PSA; [1]): Inactive
- eGFP IC50 (androgen receptor (AR); [2]): Inactive

SMILES: c1ccc2cc(-c3c[nH]c4ccncc34)ccc2c1 [Compound 13685]
- PSA IC50 (PSA; [1]): Inactive
- eGFP IC50 (androgen receptor (AR); [2]): Inactive

SMILES: c1ccc2c(Cc3nn[nH]n3)c[nH]c2c1 [Compound 13700]
- PSA IC50 (PSA; [1]): Inactive
- eGFP IC50 (androgen receptor (AR); [2]): Inactive

SMILES: Fc1cc2c(-c3ccc4c(Cl)cccc4n3)c[nH]c2c(F)c1F [Compound 13750]
- PSA IC50 (PSA; [1]): Inactive
- eGFP IC50 (androgen receptor (AR); [2]): Inactive

SMILES: O=Nc1c(-c2c[nH]c3ccccc23)[nH]c2ccccc12 [Compound 13167]
- IC50 (PSA; [3]): 1250 nM
- IC50 (androgen receptor (AR); [4]): 1900 nM

SMILES: COC(=O)c1cccc2c(-c3ccc(Br)cc3)c[nH]c12 [13 736]
- IC50 (PSA; [5]): 680 nM
- IC50 (androgen receptor (AR); [6]): 620 nM

SMILES: N#Cc1cc(-c2c[nH]c3cc(F)c(F)cc23)nc2ccccc12 [Compound 13664]
- PSA IC50 (PSA; [1]): Inactive
- eGFP IC50 (androgen receptor (AR); [2]): Inactive

SMILES: c1ccc2c(c1)C[C@@H](c1c[nH]c3ccccc13)N2 [Compound 13163-A]
- IC50 (PSA; [3]): 160 nM
- IC50 (androgen receptor (AR); [4]): 480 nM

SMILES: Fc1ccc(-c2c[nH]c3ccccc23)nc1 [Compound 13742]
- IC50 (PSA; [3]): 200 nM
- IC50 (androgen receptor (AR); [4]): 220 nM

SMILES: Cc1cc(-c2c[nH]c3c(C)cccc23)nc2ccccc12 [Compound 13594]
- IC50 (PSA; [3]): 99 nM
- IC50 (androgen receptor (AR); [4]): 166 nM

SMILES: Cc1cc(F)cc2c(-c3cc(C#N)c4ccccc4n3)c[nH]c12 [Compound 13657]
- PSA IC50 (PSA; [1]): Inactive
- eGFP IC50 (androgen receptor (AR); [2]): Inactive

SMILES: Fc1ccc2c(-c3ccc4c(C(F)(F)F)cccc4n3)c[nH]c2c1F [Compound 13617]
- PSA IC50 (PSA; [1]): Inactive
- eGFP IC50 (androgen receptor (AR); [2]): Inactive

SMILES: Cc1cccc2c(-c3ccc(-c4ccccc4)cc3)c[nH]c12 [Compound 13733]
- IC50 (PSA; [3]): 919 nM
- IC50 (androgen receptor (AR); [4]): 3810 nM
